Values quoted from earlier work in paper PMC11478287, “Design and Synthesis of Pyridyl and 2-Hydroxyphenyl Chalcones with Antitubercular Activity” (Molecules, 2024).

Tested on: PtpA
Parameters: method as in PMID 18930396
Details: cited from earlier work

COc1cc(C(=O)/C=C/c2ccc3c(c2)OCO3)cc(OC)c1OC [Compound 2]
PtpA inhibition activity (in words): very low PtpA inhibition activity
